Values of other authors as cited in PMC10034008, “Pretargeted imaging beyond the blood–brain barrier” (RSC Medicinal Chemistry, 2022).

Design: method as in ESI 3, 4
Conditions: irreversible tracers in their respective target regions; ref ESI 3, 4

| Compound | trapping rate k3 |
| --- | --- |
| CCC(=O)OC1CCN([11CH3])CC1 [[11C]PMP] | 0.03 to 0.35 min⁻¹ |
| [11CH3]N1CN(c2ccccc2)C2(CCN(CCCC(=O)c3ccc(F)cc3)CC2)C1=O [N-[11C]methylspiperone] | 0.06 min⁻¹ |
